These results are taken from patent US20020049157A1, “Use of proteasome inhibitors for treating cancer, inflammation, autoimmune disease, graft rejection and septic shock” (priority 1998, published 2002).

One assay relates to CD25. Description: CD25 (IL-2Rα) upregulation by two-color flow cytometry. It counts as cell-based, human. The conditions noted are these: PHA; LAC 10 μM added in the beginning of the culture. Here is the method: CD25 expression on T cells was evaluated by anti-CD25-PE/anti-CD3-FITC two-color flow cytometry. Similar results were obtained in two independent experiments, and a representative one is shown. The data are presented as two color histograms in forms of contours, as well as in an overlay histogram.
In the four systems of T and B cell activation and proliferation studied in the first section, the growth promoting activity of IL-2 is indirectly (for stimulation by PHA, anti-CD3, and anti-CD28 plus ionomycin), or directly (for SAC plus IL-2) involved. We then investigated the role of proteasome in IL-2Rα expression and IL-2 production. […] Under the experimental condition used, the viability of the LAC-treated cell was reasonable (>80% at 40 h) as described in the previous section as LAC was added only once initially. Moreover, no consistent change of IL-2 production in LAC-treated cells was a functional indication that the cell viability was reasonable and is not of a concern in interpreting the data. The results from this section indicate that IL-2Rα upregulation but not IL-2 production is proteasome-dependent, and the suppressed IL-2Rα expression likely contributes to LAC's inhibitory effect on T cells activation and proliferation. The Proteasome Activity is Critically Required Between G0 and G1/S Boundary in T Cells […]

The test system of a further assay is Cyclin E. The assay is described as follows: Immunoblotting of Cyclin E level in T cells. It counts as cell-based, human. Here is the method:
Tonsillar T cells were activated with PHA (2 μg/ml) for a period as indicated in each graph. LAC (10 μM) was added once at 0 h. The cells were harvested at 16 h, 24 h, or 40 h as indicated. An equal amount of lysate protein ([…]) was precipitated with rabbit anti-CDK4, anti-CDK2 or anti-Cyclin E antisera (2.5 μg Ab/sample). The immune complexes were assayed for their kinase activities using histone H1 as a substrate. (A) CDK4 kinase activity. (B) CDK2 kinase activity. (C) Cyclin E-associated CDK activity. The membrane in (C) was subsequently hybridized with anti-Cyclin E (1 μg/ml) followed by ^125I-protein A for the evaluation of the protein level of Cyclin E.
Tonsillar T cells were stimulated with PHA (2 μg/ml) for 40 h in the presence of hydroxyurea (1 mM), and these cells were blocked at the G1/S boundary (G1 block). The synchronization was released by washing out hydroxyurea, and the cells were recultured in medium containing 2 μg/ml PHA in the absence or presence of LAC ([…], added once at the time of the release). The cells were harvested at 6 h and 22 h post the G1/S block. […]
Immunoblotting was employed to evaluate the levels of Cyclin E, cyclin A, p21^Cip1 and p27^Kip1. […] The cleared lysates were quantitated for protein concentrations. […] The signals on the membrane were detected by [^125I]-protein A followed by autoradiography.

The test system of assay [1] is human peripheral blood mononuclear cells. The assay is described as follows: Aggregate formation of PHA-stimulated PBMC. It counts as cell-based. Conditions: 2 μg/ml PHA plus 10 μM lactacystin; 24 h. From the text: (§1) Cell-cell interaction is essential in antigen presentation and in T cell's help to T and B cells. The adhesion molecules are necessary to establish the cell-cell interaction. Blocking the adhesion molecules ICAM-1 and LFA-1 is known to inhibit immune responses and to suppress graft rejection. […] Therefore, inhibition of the proteasome activity will be a useful way to control undesirable immune responses during graft rejection, autoimmune diseases, and inflammation.

A further assay concerns mouse lymph node cells. The assay is described as follows: Aggregate formation of Con A-stimulated lymph node cells. It counts as cell-based. The conditions noted are these: 2 μg/ml Con A plus 10 μM lactacystin; 24 h.
From the text: as §1

In a further assay the target is 20S proteasome (Rattus norvegicus, UniProt P28075). The assay is described as follows: 20S proteasome chymotrypsin-like activity, positive control for LAC. It counts as biochemical.
The subject of another assay is Bcl-xL. The assay is described as follows: Immunoblotting of Bcl-xL in Bcl-xL transfected Namalwa cells. It counts as cell-based, human. Conditions: lactacystin 6 μM; 6 h. Here is the method:
Jurkat cells, wild type Namalwa cells and Bcl-xL transfected Namalwa cells were treated with medium (lanes 1), staurosporine (0.3 μM, lanes 2) and lactacystin (6 μM, lanes 3) for 6 H. The proteins from the mitochondrial fraction of these cells were analyzed by immunoblotting and the amount of Bik, Bcl-xL, Bax, and Bak evaluated. The same membranes were used sequentially and probed with different antibodies against these factors. A nonspecific band recognized by a monoclonal antibody against cytochrome […] (COX) was used as control for even sample loading in the lanes.
For orientation: In western blotting, separated proteins are transferred to a membrane and probed.

Description for 20S proteasome: Human PBMC were cultured in the absence or presence of 2 μg/ml PHA or 10 nM RAPA for 16 h-70 h as indicated. The cells were then harvested, and the chymotrypsin-like activity of whole cells lysates was assayed in the absence or presence of 20 μM proteasome inhibitor LAC. The data are presented as arbitrary units of fluorescence intensity per 20 μg lysate protein. The experiments were repeated three times and a representative one is shown. Samples are in duplicate and the mean±SD is shown. (A) Total chymotrypsin-like activity in the lysate of PBMC. (B) Lactacystin-inhibitable chymotrypsin-like activity in the lysate of 70 h PBMC. […] LAC was always added to the lysates during the proteinase assay 15 min before the addition of the substrate. The solid bars represent the activity in the presence of LAC. The net proteasome activities are calculated as the total activity minus the remaining activity after the LAC addition.
PBMC were cultured with or without PHA (2 μg/ml) and RAPA (10 nM). After 16 h-70 h, the cells were harvested and sonicated in 300 μl PBS on ice for 40 sec. Twenty micrograms of protein per sample from the cleared lysates were supplemented to 100 μl with 0.1 M Tris buffer (pH 8.2). […] The samples were then diluted to 2 ml with 0.1 M Tris pH8.2, and measured for their fluorescent intensity by a PTI fluorometer (Photo Technology International, South Brunswick, N.J.). […]

By inhibition is commonly meant the drop in the measured response relative to a control, in per cent. A high value points to a response far below the control. Consider `CC(=O)N[C@@H](CSC(=O)[C@]1([C@@H](O)C(C)C)NC(=O)[C@H](C)[C@@H]1O)C(=O)O` [LAC, lactacystin], for which the “CD25 upregulation in CD3+ T cells” value in the assay with CD25 is reported as “significantly inhibited”. The “decline of Cyclin E level after the G1/S boundary” value in the assay with Cyclin E (PHA plus hydroxyurea block, released, LAC added at release, 6 h and 22 h) is listed as “decline was prevented”. Moreover, the “Cyclin E protein level” value in the assay with Cyclin E (PHA-activated T cells, LAC added once at 0 h) is listed as “increased”. Further, the aggregate formation result (in assay [1]; in the assay with mouse lymph node cells) was “effectively block the aggregate formation” throughout. The inhibition at 10 µM at 20S proteasome (LAC at 10 μM) was 90%. Also, the “inhibitory effect on the 20S proteasome activity” value on 20S proteasome (LAC increased to 20 μM) is on record as “did not further increase the inhibitory effect”. Besides, in the assay on Bcl-xL, the “Bcl-xL level in transfected Namalwa cells” value is given as “accumulation of Bcl-xL”.
